From patent publication US20240374591A1, “CEREBLON BINDING COMPOUNDS, COMPOSITIONS THEREOF, AND METHODS OF TREATMENT THEREWITH” (CELGENE CORPORATION, priority 2021, published 2024) come the findings set out here.

Molecules are shown by their SMILES. Where a name gives a salt, the structure may show the parent alone.

In this assay the target is T1, AR in VCaP cells (Homo sapiens, UniProt P10275).
T1 construct: endogenous in cells; host or cells: VCaP cells
T1 sequence (P10275 1-920): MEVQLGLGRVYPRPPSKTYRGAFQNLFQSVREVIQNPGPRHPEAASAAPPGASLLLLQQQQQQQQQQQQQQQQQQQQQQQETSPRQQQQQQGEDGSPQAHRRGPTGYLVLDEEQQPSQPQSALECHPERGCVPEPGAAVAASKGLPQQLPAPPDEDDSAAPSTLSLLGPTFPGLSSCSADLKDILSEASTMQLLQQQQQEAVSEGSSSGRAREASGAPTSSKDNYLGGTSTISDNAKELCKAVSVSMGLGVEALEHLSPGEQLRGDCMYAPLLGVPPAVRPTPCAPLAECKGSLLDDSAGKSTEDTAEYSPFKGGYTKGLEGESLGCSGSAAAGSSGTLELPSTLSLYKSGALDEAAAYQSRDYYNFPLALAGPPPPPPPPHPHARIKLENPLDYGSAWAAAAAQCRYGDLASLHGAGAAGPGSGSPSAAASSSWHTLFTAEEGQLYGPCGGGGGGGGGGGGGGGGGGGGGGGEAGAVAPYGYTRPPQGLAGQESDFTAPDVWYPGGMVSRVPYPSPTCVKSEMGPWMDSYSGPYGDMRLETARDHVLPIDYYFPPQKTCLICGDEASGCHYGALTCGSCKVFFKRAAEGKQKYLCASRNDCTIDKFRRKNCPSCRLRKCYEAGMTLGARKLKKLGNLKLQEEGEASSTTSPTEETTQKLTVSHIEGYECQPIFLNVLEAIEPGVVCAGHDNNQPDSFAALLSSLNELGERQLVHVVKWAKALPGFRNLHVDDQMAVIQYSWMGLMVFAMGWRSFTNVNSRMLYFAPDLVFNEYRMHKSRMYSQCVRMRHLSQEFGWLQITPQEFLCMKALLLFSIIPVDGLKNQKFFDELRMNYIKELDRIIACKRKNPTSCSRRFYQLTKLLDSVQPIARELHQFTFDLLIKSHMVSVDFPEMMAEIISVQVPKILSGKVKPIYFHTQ
The assay is described as follows: VCAP AR Degradation Assay (AR ELISA, 24 h). The following applies: for DC50: concentration giving 50% AR degradation vs DMSO control; for remaining activity at up to 5 µM: lowest measured AR level normalized to DMSO control, top concentration 5 μM, read-out: Y. Type of assay: cell-based. As to the method:
VCAP AR Degradation Assay. Test compounds were pre-dispensed into a Corning CellBind 96-well clear bottom plate (Cat #3300) using an acoustic dispenser to make a 10-point concentration series at 1:3 dilution for each compound. The final top concentration of each compound was 5 μM. DMSO at a final concentration of 0.1% was used as a control. VCaP cells cultured in DMEM with 8% fetal bovine serum (FBS) were seeded at 50K cells per well in a 200 μL volume into the compound plate and incubated at 37° C. in a CO2 incubator for 24 h. The medium was carefully removed from the cells and the plate was placed on ice. One hundred μL of ice-cold 1× cell lysis buffer from Cell Signaling Technologies (Cat #9803) was added to each well of the cells and the plate was incubated at 4° C. on a shaker for 1 h. Fifteen μL of cell lysate was used for AR ELISA detection using a PathScan Total Sandwich AR ELISA kit (Cell Signaling Technology, Cat #12580). AR levels in compound-treated wells were normalized to that of DMSO control and expressed as percent of control (PoC) (y). A Four Parameter Logistic Model (Sigmoidal Dose-Response Model) was used to determine the compound's DC50, and EC50, using the following equation: […]
The lowest measured AR level normalized to DMSO control in response to compound treatment, termed Y value, was used to characterize the compound-mediated AR degradation efficiency.

As to `CC1(C)C(=O)N(c2ccc(C#N)c(C(F)(F)F)c2)C(=S)N1[C@H]1CC[C@H](OCCC2CCN(CC(=O)Nc3ccc(C4CCC(=O)NC4=O)nc3)CC2(F)F)CC1` (stereo partly drawn) [Cmpd 31, 2-(4-(2-(((trans)-4-(3-(4-Cyano-3-(trifluoromethyl)phenyl)-5,5-dimethyl-4-oxo-2-thioxoimidazolidin-1-yl)cyclohexyl)oxy)ethyl)-3,3-difluoropiperidin-1-yl)-N-(6-(2,6-dioxopiperidin-3-yl)pyridin-3-yl)acetamide], the DC50 is at most 5 nM and the remaining activity at up to 5 µM was 0 to 20%.

Consider `C[C@@H]1CN(CCCC[C@H]2CC[C@H](N3C(=S)N(c4ccc(C#N)c(C(F)(F)F)c4)C(=O)C3(C)C)CC2)C[C@H](C)N1CC(=O)Nc1ccc(N2CCC(=O)NC2=O)nc1` [Cmpd 15, 2-((2R,6S)-4-(4-((trans)-4-(3-(4-Cyano-3-(trifluoromethyl)phenyl)-5,5-dimethyl-4-oxo-2-thioxoimidazolidin-1-yl)cyclohexyl)butyl)-2,6-dimethylpiperazin-1-yl)-N-(6-(2,4-dioxotetrahydropyrimidin-1(2H)-yl)pyridin-3-yl)acetamide], for which the DC50 fell in the range of 100 to 10000 nM and the remaining activity at up to 5 µM was 30 to 70%.

Take `C[C@@H]1C[C@H](OCC[C@H]2CC[C@H](N3C(=S)N(c4ccc(C#N)c(C(F)(F)F)c4)C(=O)C3(C)C)CC2)C[C@H](C)N1CC(=O)Nc1ccc(C2CCC(=O)NC2=O)nc1` (stereo partly drawn) [Cmpd 27, 2-((2R,4r,6S)-4-(2-((trans)-4-(3-(4-Cyano-3-(trifluoromethyl)phenyl)-5,5-dimethyl-4-oxo-2-thioxoimidazolidin-1-yl)cyclohexyl)ethoxy)-2,6-dimethylpiperidin-1-yl)-N-(6-(2,6-dioxopiperidin-3-yl)pyridin-3-yl)acetamide]: the DC50 lay in the range of 5 to 10 nM and the remaining activity at up to 5 µM is 20 to 30%.

For `C[C@@H]1CN(CCC[C@H]2CC[C@H](N3C(=S)N(c4cnc(C#N)c(C(F)(F)F)c4)C(=O)C3(C)C)CC2)C[C@H](C)N1CC(=O)Nc1ccc(C2CCC(=O)NC2=O)nc1` (stereo partly drawn) [Cmpd 8, 2-((2R,6S)-4-(3-(trans-4-(3-(6-Cyano-5-(trifluoromethyl)pyridin-3-yl)-5,5-dimethyl-4-oxo-2-thioxoimidazolidin-1-yl)cyclohexyl)propyl)-2,6-dimethylpiperazin-1-yl)-N-(6-(2,6-dioxopiperidin-3-yl)pyridin-3-yl)acetamide hydrochloride], the DC50 is at most 5 nM and the remaining activity at up to 5 µM was 20 to 30%.

In the case of `C[C@@H]1C[C@H](OCCC[C@H]2CC[C@H](N3C(=S)N(c4cnc(C#N)c(C(F)(F)F)c4)C(=O)C3(C)C)CC2)C[C@H](C)N1CC(=O)Nc1ccc(C2CCC(=O)NC2=O)nc1` (stereo partly drawn) [Cmpd 26, 2-((2R,4r,6S)-4-(3-((trans)-4-(3-(6-Cyano-5-(trifluoromethyl)pyridin-3-yl)-5,5-dimethyl-4-oxo-2-thioxoimidazolidin-1-yl)cyclohexyl)propoxy)-2,6-dimethylpiperidin-1-yl)-N-(6-(2,6-dioxopiperidin-3-yl)pyridin-3-yl)acetamide], the DC50 is at most 5 nM and the remaining activity at up to 5 µM fell in the range of 0 to 20%.

On to `CC1(C)C(=O)N(c2ccc(C#N)c(C(F)(F)F)c2)C(=S)N1[C@H]1CC[C@H](CCCN2CCN(CC(=O)Nc3ccc(C4CCC(=O)NC4=O)nc3)[C@@H](C(F)(F)F)C2)CC1` (stereo partly drawn) [Cmpd 22, 2-((R)-4-(3-((trans)-4-(3-(4-Cyano-3-(trifluoromethyl)phenyl)-5,5-dimethyl-4-oxo-2-thioxoimidazolidin-1-yl)cyclohexyl)propyl)-2-(trifluoromethyl)piperazin-1-yl)-N-(6-(2,6-dioxopiperidin-3-yl)pyridin-3-yl)acetamide], for which the DC50 lay in the range of 10 to 100 nM and the remaining activity at up to 5 µM lay in the range of 20 to 30%.
